Experimental data published in PubChem BioAssay (NCI).
Several values for one entry are separate records, joined by “and”; a condition that tells them apart may be missing. Equal values may be shown once.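 How tested: cells in 96-well plates exposed to compound for 48 hours at five concentrations. Here, GI50 denotes the concentration required for 50% inhibition of growth. TGI: total growth inhibition.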

Tests used:
Assay in all cases: NCI anticancer screen, dose series, 48 h
M14 melanoma = system: M14 melanoma
HL-60(TB) leukemia = system: HL-60(TB) leukemia
UACC-62 melanoma = system: UACC-62 melanoma
COLO 205 colon = system: COLO 205 colon
EKVX NSCLC = system: EKVX NSCLC
786-0 renal = system: 786-0 renal
NCI-H522 lung = system: NCI-H522 lung
SN12C renal = system: SN12C renal
CAKI-1 renal = system: CAKI-1 renal
SR leukemia = system: SR leukemia

Structure (SMILES)	TGI (M14 melanoma) [µM]	TGI (HL-60(TB) leukemia) [µM]	TGI (UACC-62 melanoma) [µM]	TGI (COLO 205 colon) [µM]	TGI (EKVX NSCLC) [µM]	TGI (786-0 renal) [µM]	TGI (NCI-H522 lung) [µM]	TGI (SN12C renal) [µM]	TGI (CAKI-1 renal) [µM]	TGI (SR leukemia) [µM]	GI50 (M14 melanoma)	GI50 (HL-60(TB) leukemia) [µM]	GI50 (UACC-62 melanoma) [µM]	GI50 (COLO 205 colon) [µM]	GI50 (SR leukemia) [µM]	GI50 (786-0 renal)	GI50 (NCI-H522 lung) [µM]	GI50 (SN12C renal) [µM]	GI50 (CAKI-1 renal) [µM]	GI50 (EKVX NSCLC) [µM]
O=C(O)COc1ccc(C(=O)/C(SS/C(C(=O)c2ccc(OCC(=O)O)c(Cl)c2Cl)=C2\C=C(c3ccc(Cl)cc3)SS2)=C2/C=C(c3ccc(Cl)cc3)SS2)c(Cl)c1Cl	26.3	2.1	25.7	1.27	> 100	26.3	9.54	1.79	> 100	–	–	–	–	–	–	–	–	–	–	–
C(=N\Nc1ccccc1)/c1nc2ccccc2nc1/C=N/Nc1ccccc1	30	> 100	27.3	–	> 78.6	29.5	35.9	36.4	21.4	> 84.7	–	–	–	–	–	–	–	–	–	–
C[C@]12CC[C@@H]3c4cc(O)c(O)cc4CC[C@H]3[C@@H]1CC[C@@H]2O	> 100	24.7	29.1	> 73.3	–	> 100	3.83	> 100	> 88.9	48.5	1.35 µM	2.33	3.9	28.9	0.576	6.08 µM	0.987	6.21	3.83	–
NC(N)=NC(N)=Nc1cnccn1	> 100	> 100	> 100	> 100	> 100	> 100	> 100	> 100	> 100	–	–	–	–	–	–	–	–	–	–	–
O=C(/C(=C/c1ccc([N+](=O)[O-])cc1)SCc1ccc(Cl)cc1)c1ccc(F)cc1	16.1	11.1	8.47	14.9	15.2	7.9	3.76	7.43	–	> 26.5	3.38 µM	2.82	2.27	3.8	2.01	2.66 µM	1.84	2.4	–	3.78
N/C(=N/N=C/c1ccccc1)N/N=C\c1ccccc1	29.8	23	28.6	14.7	> 100	43.9	> 100	> 100	> 100	–	3.4 µM	3.9	7.92	3.66	–	5.2 µM	5.23	5.6	5.02	7.59
COc1cc(O)c2c(c1)O[C@@H]1OCC[C@H]21	> 100	> 100	> 100	> 100	> 100	> 100	–	> 100	–	> 100	–	–	–	–	–	–	–	–	–	–
COc1ccc(Cc2c(=O)[nH]nc3ccccc23)cc1	> 100	–	> 100	> 100	> 100	> 100	–	> 100	> 100	–	–	–	–	–	–	–	–	–	–	–
COc1ccc2c(c1)oc(=O)c1cc(OC)ccc12	> 100	–	> 100	> 100	> 100	> 100	> 100	> 100	> 100	–	> 100 µM	–	63	> 100	–	> 100 µM	> 100	> 100	> 100	8.99
CC[C@@]1(O)C(=O)OCc2c1cc1n(c2=O)Cc2cc3cccc([N+](=O)[O-])c3nc2-1	12.5	> 100	1.28	25.9	> 100	1.29	23.3	5.01	–	–	1.05 µM	0.365	0.299	4.63	–	0.3 µM	1.04	0.382	–	96.9
Cc1ccc(NC(=O)c2cc3ccccc3c(N=Nc3cc(S(=O)(=O)O)ccc3O)c2O)c(C)c1	37.4	–	83.8	> 100	> 100	> 100	> 100	> 100	> 100	–	–	–	–	–	–	–	–	–	–	–
N#Cc1c(N)n2c(nc1=Nc1ccc(Cl)cc1)sc1cc(Cl)ccc12	> 100	> 100	> 100	–	> 100	5.03	–	> 100	> 100	> 100	6.59 µM and 5.9 µM	–	2.85	–	2.26	5.46 µM and 2.5 µM	3.74	33.5	22.4	10.2
C=C1C(=O)O[C@H]2[C@H]1CC/C(C=Nc1c(N)cc(C(F)(F)F)cc1C(F)(F)F)=C\CC[C@@]1(C)O[C@@H]21	3.67	27.2	2.99	3.04	–	4.11	4.13	–	2.98	5.17	1.73 µM	0.801	1.28	1.35	0.567	2.04 µM	1.66	–	1.49	–
Nc1nc(Cl)cc(NCC(O)CO)n1 (stereo not drawn)	> 100	> 100	> 100	> 100	> 100	> 100	–	> 100	–	> 100	–	–	–	–	–	–	–	–	–	–
Cc1nn2c(nc1=O)sc1ccc3ccccc3c12	> 100	> 100	> 100	> 100	> 100	> 100	–	> 100	> 100	> 100	–	–	–	–	–	–	–	–	–	–
O=[N+]([O-])c1cc([N+](=O)[O-])c(/C=C/c2ccc(Cl)c(Cl)c2)cc1/C=C/c1ccc(Cl)c(Cl)c1	52	49.2	79.6	38.6	> 100	60.3	56.4	43.1	> 100	–	–	–	–	–	–	–	–	–	–	–
CC1(Br)CC2OC3(Br)C=CC(C)(O)C2(CC1=O)C3(C)C (stereo not drawn)	> 100	–	> 100	> 100	> 100	> 100	> 100	> 100	> 100	> 100	–	–	–	–	–	–	–	–	–	–

Structure (SMILES)	TGI (M14 melanoma) [µM]	TGI (HL-60(TB) leukemia) [µM]	TGI (UACC-62 melanoma) [µM]	TGI (COLO 205 colon) [µM]	TGI (EKVX NSCLC) [µM]	TGI (786-0 renal) [µM]	TGI (NCI-H522 lung) [µM]	TGI (SN12C renal) [µM]	TGI (CAKI-1 renal) [µM]	TGI (SR leukemia) [µM]	GI50 (M14 melanoma)	GI50 (HL-60(TB) leukemia) [µM]	GI50 (UACC-62 melanoma) [µM]	GI50 (COLO 205 colon) [µM]	GI50 (SR leukemia) [µM]	GI50 (786-0 renal)	GI50 (NCI-H522 lung) [µM]	GI50 (SN12C renal) [µM]	GI50 (CAKI-1 renal) [µM]	GI50 (EKVX NSCLC) [µM]
Nc1nc(N)c(-c2ccccc2)c(C(=O)Nc2ccccc2)n1	> 100	–	> 100	> 100	> 100	> 100	> 100	> 100	> 100	–	–	–	–	–	–	–	–	–	–	–
COc1ccc2c(O)c(/C=C3\N=Nc4ccccc43)oc2c1C[C@@H]1CCNC[C@H]1F	21.4	37.8	–	5.05	25.5	3.22	3.94	–	25	5.48	6.12 µM	16	–	1.88	1.5	1.7 µM	1.67	–	12.3	12.2
NC1CCCCC1N.O=[Se]([O-])[O-].[Pt+4] (stereo not drawn)	> 52.2	> 28.9	> 41.8	17.5	> 100	20.3	11.2	> 100	45.3	–	2.51 µM	0.315	1.33	1.19	–	0.0552 µM	0.589	1.67	1.08	> 35.2
CCOC(=O)C(N=C(c1ccccc1)c1ccccc1)N(C(=O)OC(C)(C)C)C(=O)OC(C)(C)C (stereo not drawn)	–	–	> 100	> 100	> 100	> 100	> 100	> 100	> 100	> 100	–	–	–	–	–	–	–	–	–	–
CCCCCCCCCCCCSC1=C(Cl)C(=O)C(OC)=C(OC)C1=O	18.4	5.82	17.6	18.4	> 29.5	19.2	3.75	16.5	34.2	–	2.53 µM	0.0502	2.36	4.32	–	4.18 µM	0.379	1.75	4.79	1.61
Clc1ccc(Nc2ccnc(N3CCN(c4ccnc5cc(Cl)ccc45)CC3)n2)cc1	4.16	20	6.97	4.63	–	7.88	4.94	28.6	15.6	8.75	1.77 µM	3.54	1.95	1.92	2.51	2.38 µM	1.65	3	2.47	–
CCOC(=O)Cc1csc(Nc2ccc(OCC)cc2)n1	–	> 100	–	> 100	> 100	> 100	> 100	> 100	–	> 100	–	–	–	–	–	–	–	–	–	–
CCCCCCn1c(-c2ccc(C(=O)O/N=C(\N)c3ccc4ccccc4c3)cc2)nc(-c2ccccc2)c1-c1ccccc1	> 100	> 100	> 100	> 100	> 100	> 100	> 100	> 100	55.1	–	> 83.5 µM	1.33	22.6	> 100	–	7.63 µM	24.5	> 100	2.65	6.73
COc1ccc(Sc2nc3cc(N)cc(N)c3nc2-c2ccccc2)cc1	> 100	> 100	> 100	> 100	–	> 100	> 100	> 100	> 100	–	> 100 µM	4.25	38	19.3	–	52.3 µM	3.2	> 100	9.71	–
CCOC(=O)NC/C=C/COC1CCCCO1 (stereo not drawn)	> 100	> 100	> 100	> 100	–	> 100	> 100	> 100	> 100	> 100	–	–	–	–	–	–	–	–	–	–
Cc1cc(C)n(-c2ccnc3cc(Cl)ccc23)n1	> 100	> 100	> 100	> 100	> 100	> 100	–	> 100	–	> 100	–	–	–	–	–	–	–	–	–	–
CCCCNC(=O)C1C(=O)N(CCCC)C(=O)/C1=N\N (stereo not drawn)	> 100	–	> 100	> 100	> 100	> 100	> 100	> 100	> 100	–	–	–	–	–	–	–	–	–	–	–
CCCCCCCCCCCC(=O)N1CCN(C(C)=O)CC1	33	–	34.9	33.6	> 100	31.1	38.4	37.3	38.9	53.5	17.6 µM	–	19.7	18.1	22	16.9 µM	17.4	18.8	19.9	33.5
CC(C)(C)[Si](C)(C)OC1[C@@H](O[Si](C)(C)C(C)(C)C)[C@@H](CNC(=O)NC(=O)CF)O[C@H]1n1cnc2c(NC(=O)Nc3ccccc3)ncnc21 (stereo partly drawn)	> 50	> 50	> 50	18.4	–	15.9	> 50	13.2	> 50	32	15.9 µM	17.4	31.2	7.66	4.5	7.46 µM	> 50	3	27.3	–
COc1cccc(/C=N/NC(=O)c2ccccc2N2CCCC2)c1O	24.2	–	19.7	> 100	> 100	> 100	> 100	> 100	> 100	> 100	3.08 µM	–	3.73	3.03	4.2	3.58 µM	2.54	15.5	3.97	3.32
O=c1[nH]c(=O)c2cc3cc(C4CC(O)C(CO)O4)ccc3cc2[nH]1 (stereo not drawn)	> 100	–	> 100	> 100	> 100	> 100	87.8	> 100	> 100	–	> 100 µM	–	> 100	> 100	–	> 100 µM	17.5	> 100	> 100	> 100
Cc1ccc2c(c1)c(Sc1ccc(C(=O)NO)cc1)c1n2CN(C)CC1	3.79	6.4	3.25	4.11	–	8.53	2.61	6.79	13.9	8.93	1.72 µM	2.35	1.51	1.82	2.69	2.82 µM	1.16	2.28	3.87	–
